Assay results as given in paper PMC10897374, “Synthetic angiotensin II peptide derivatives confer protection against cerebral and severe non-cerebral malaria in murine models” (Scientific Reports, 2024).
Where a SMILES comes first, the peptide text is derived from it. Bridges are numbered along the chain shown (N, C = ends). Where no end group is shown, it is not given here.

What was measured:
Plasmodium berghei ANKA [1] = assay: Experimental cerebral malaria (ECM) model: parasitemia and survival; type: in vivo, C57BL/6 mice
Protocol: Six- to eight-week-old male C57BL/6 mice were provided by the Oswaldo Cruz Foundation (FIOCRUZ—Rio de Janeiro, Brazil). The mice were housed in appropriate cages with free access to food and fresh water in a room with controlled temperature (22–24 °C) with a light/dark cycle of 12 h.
(§1) A cryopreserved sample of erythrocytes infected with P. berghei ANKA (kindly provided by Dr. Leonardo J. Carvalho, La Jolla University, San Diego, CA) was thawed and 1 × 10^6 erythrocytes infected with P. berghei ANKA were injected intraperitoneally (i.p.) in the C57BL/6 mice. Parasitemia was monitored from the prepatent period until parasitemia was sufficient for infection of the experimental animal groups (7 male mice per group), i.e., 5–8% parasitemia per mL of blood (injection of 200 µL in each mouse).
The same protocol was performed with 6- to 8-week-old BALB/c mice also provided from FIOCRUZ (8 male mice per group). Each group was treated one hour before infection (day zero) i.p. at 100 ng Kg^−1 for five consecutive days. The dose used was similar to that used for Ang II in in vivo studies, as described by Gallego-Delgado et al., 2015. […] After 3 days, parasitemia was evaluated by blood smear from a droplet of blood collected from the lateral tail vein of each animal and colored with the hematological Diff-Quick® kit. The survival of the animals was also monitored daily. […]

Plasmodium berghei ANKA [2] = assay: Severe non-cerebral malaria model: parasitemia and survival; type: in vivo; settings: BALB/c mice
Protocol: as §1
The same protocol was performed with 6- to 8-week-old BALB/c mice also provided from FIOCRUZ (8 male mice per group). […] After 3 days, parasitemia was evaluated by blood smear from a droplet of blood collected from the lateral tail vein of each animal and colored with the hematological Diff-Quick® kit. The survival of the animals was also monitored daily. […]
C57BL/6 (cerebral malaria model) and BALB/c (non-cerebral malaria model) mice received a single daily dose (100 ng Kg^−1 min^−1) of Ang II (brown line), Ang II-SS (orange line), VIPF (blue line), or vehicle (PBS, black line) for 5 days. […] Parasitemia was monitored by Diff-Quick stained blood smears from day 3 to day 7 for C57BL/6 mice (A) and from day 3 to day 9 for BALB/c mice (B). Percentage of survival for C57BL/6 mice (C) and BALB/c mice (D) mice was monitored daily starting on day 6 p.i. […]

[3] = test system: C57BL/6 mice infected with P. berghei ANKA; assay: SHIRPA behavioral tests in the ECM model; type: in vivo, mouse; settings: day 5 post-infection, difference of scores before and after infection, vs vehicle (PBS)
Source text: C57BL/6 mice were used for the experimental cerebral malaria model, and the assays were defined by the presence of at least two of the following clinical signs of neurological involvement: ataxia, paralysis of the limbs, poor correction reflex, convulsions, and coma. A series of SHIRPA tests (SmithKline Beecham, Harwell, Imperial College, Royal London Hospital, phenotype assessment) was used to evaluate behavioral, motor, and neurological changes during the development of the P. berghei infection. Tests aimed at evaluating cognitive and behavioral parameters were selected to assess brain impairment of the mice. The tests described below were initially performed on animals not yet infected at day 0. Next, the mice were treated and infected as described earlier. Five days after infection, the tests were repeated and the results were expressed as the difference between the sum of the scores before and after infection with P. berghei. […]
After five minutes of the test described above, the animals were transferred to the arena without being touched. The observation of the immediate reactions to the new environment was recorded for thirty seconds and a score was assigned.
While mice were still in the arena, the number of squares of 11 cm^2 of the arena that the animal stepped into with four legs at the same time was quantified for thirty seconds. […]

mouse muscle tissue = settings: cited from earlier work
Plasmodium = settings: same mouse model (ECM), infected mice treated with the ACE inhibitor; cited from earlier work

Compound	mouse survival (Plasmodium berghei ANKA [1]; C57BL/6 mice (ECM), 100 ng Kg−1 min−1 i.p. daily for 5 days, Kaplan–Meier, log rank vs vehicle, n = 8)	parasitemia level at day 7 p.i. (Plasmodium berghei ANKA [1]; C57BL/6 mice, 100 ng Kg−1 min−1 i.p. daily until day 4 p.i., first dose 1 h before infection, blood smear, vehicle group reached 18% parasitemia)	mouse survival (Plasmodium berghei ANKA [2]; 100 ng Kg−1 min−1 i.p. daily for 5 days, Kaplan–Meier, log rank vs vehicle, n = 8)	effect on parasitemia (Plasmodium berghei ANKA [2]; 100 ng Kg−1 min−1 i.p. daily until day 4 p.i., blood smear day 3 to 9 p.i., especially at day 9 p.i., vs vehicle)	SHIRPA behavioral score [3]	contractile activity (mouse muscle tissue)	effect on parasitemia (Plasmodium)
CDRVYIHPFC (disulfide 1-10 (inferred)) [Ang II-SS, disulfide bridge-constrained derivative of Ang II]	increased mouse survival	approximately 10%	increased mouse survival	reduced parasitemia	reduced the SHIRPA behavioral score	did not elicit significant contractile activity	–
C[C@H](CS)C(=O)N1CCC[C@H]1C(=O)O [captopril]	–	–	–	–	–	–	discrete but significant reduction in parasitemia
CC[C@H](C)[C@H](NC(=O)[C@@H](N)C(C)C)C(=O)N1CCC[C@H]1C(=O)N[C@@H](Cc1ccccc1)C(=O)O [VIPF] (H-VIPF-OH)	–	–	–	–	–	did not elicit significant contractile activity	–
